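These data come from cells grown in 96-well plates and exposed to compound for 48 hours at five concentrations. Definition used: TGI = concentration required for complete inhibition of growth.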 Some results are limits rather than exact numbers.

In PubChem BioAssay (NCI) one finds TGI data, which are given here for three compounds.

Common to all, as to test: NCI anticancer screen, dose series, 48 h
Test [1] concerns HCC-2998 colon.
Test [2] has as its system HCT-15 colon.
For test [3], the system named is HS 578T breast.
In test [4] the test system is BT-549 breast.
Test [5] has as its system NCI-H226 lung.
The test system of test [6] is OVCAR-5 ovarian.
In test [7] the test system is HL-60(TB) leukemia.
Test [8] has as its system TK-10 renal.
Test [9] has as its system T-47D breast.
Test [10] has as its system SR leukemia.
Test [11] deals with 786-0 renal.
The test system of test [12] is MDA-N.
The test system of test [13] is SW-620 colon.
The subject of test [14] is A549 NSCLC.

For the compound `O=S(=O)(Nc1ccccc1S(=O)(=O)c1ccccc1)c1ccccc1`, the TGI in [1], in [2], in test [3], in [4], in test [5] and in test [6] was over 100 µM each time. Moreover, the TGI in [7], in [8], in test [9], in [10], in [11] and in test [12] was over 100 µM throughout. The TGI in test [13] and in test [14] was over 100 µM throughout.
`C=CCC1(O)c2cccc(O)c2C(=O)c2c(O)cccc21`: the TGI in test [1] was 43.7 µM; in test [2] it was 47.9 µM; in test [3] it was 63.1 µM; in test [4], 60.7 µM; in test [5], over 100 µM; in [6] it was over 100 µM. For the same compound, the TGI in [7] was 47.5 µM; in [8] it was over 100 µM; in test [9] it was 78.3 µM; in [10], 44.7 µM; in [11], over 100 µM; in test [12] it was 45 µM. The TGI was over 100 µM in [13] and 88.4 µM in test [14].
Turning to `CC1C(c2ccccc2O)c2cc3c(cc2OC1N1CCCC1)OCO3` (configuration not stated), the TGI in test [1] was over 100 µM; in test [2], over 100 µM; in test [3] it was 43.3 µM; in [4], over 100 µM; in [5] it was over 100 µM; in [6], over 100 µM. Moreover, the TGI in test [7] is 35.1 µM; in test [8], over 100 µM; in test [9], over 100 µM; in [10], 54.2 µM; in [11], 91 µM; in [12], 46.8 µM. Also, the TGI in test [13] was 44.4 µM; in test [14], over 100 µM.
